Results as given in patent US12060347B2 (BRISTOL-MYERS SQUIBB COMPANY, priority 2016, dated 2024).
pIC50: −log10 of the molar value.

target: T1, human PAR4 (Homo sapiens, UniProt Q96RI0); assay: PAR4 FLIPR assay: antagonism of agonist-peptide-induced calcium mobilization in PAR4-expressing HEK293 cells; type: cell-based; details: H-Ala-Phe(4-F)-[…]NH2-induced intracellular calcium mobilization, 11-point curves
T1 construct: expressed in transfected cells; host or cells: HEK293 PAR4 Clone 1.2A (BMS Arctic ID 383940)
T1 sequence (Q96RI0 18-385): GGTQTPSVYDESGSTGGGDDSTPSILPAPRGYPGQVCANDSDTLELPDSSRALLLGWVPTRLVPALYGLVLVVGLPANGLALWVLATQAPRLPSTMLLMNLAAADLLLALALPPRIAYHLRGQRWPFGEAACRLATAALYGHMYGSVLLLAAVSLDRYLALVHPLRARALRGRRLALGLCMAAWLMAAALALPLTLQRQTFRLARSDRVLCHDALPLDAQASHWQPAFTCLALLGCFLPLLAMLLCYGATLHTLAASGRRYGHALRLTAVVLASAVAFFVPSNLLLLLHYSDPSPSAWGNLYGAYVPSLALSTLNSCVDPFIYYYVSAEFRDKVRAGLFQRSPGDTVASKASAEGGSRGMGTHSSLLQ

| pIC50 | SMILES |
| --- | --- |
| 8.77 | COc1cnc2c(-c3nc4cc(F)c(OC[C@@H](C)OC(=O)Nc5cnc(OCCO)nc5)nc4s3)cc(C)cc2n1 [Example 685, (R)-1-((6-fluoro-2-(2-methoxy-7-methylquinoxalin-5-yl)thiazolo[5,4-b]pyridin-5-yl)oxy) propan-2-yl (2-(2-hydroxyethoxy)pyrimidin-5-yl)carbamate] |
| 9.05 | COc1cnc2c(-c3nc4cc(F)c(OC[C@@H](C)OC(=O)Nc5ccc(OCC(F)(F)CO)nc5)nc4s3)cc(C)cc2n1 [Example 687, (R)-1-((6-fluoro-2-(2-methoxy-7-methylquinoxalin-5-yl)thiazolo[5,4-b]pyridin-5-yl)oxy) propan-2-yl (6-(2,2-difluoro-3-hydroxypropoxy)pyridin-3-yl)carbamate] |
| 8.35 | COc1cnc2c(-c3nc4cc(F)c(OC[C@@H](C)OC(=O)Nc5cnc(OC[C@@H](C)O)nc5)nc4s3)cc(C)cc2n1 [Example 688, (R)-1-((6-fluoro-2-(2-methoxy-7-methylquinoxalin-5-yl)thiazolo[5,4-b]pyridin-5-yl)oxy) propan-2-yl (2-((R)-2-hydroxypropoxy)pyrimidin-5-yl)carbamate] |
| 9.52 | COC(=O)c1ncc(NC(=O)O[C@H](C)COc2nc3sc(-c4cc(C)cc5nc(OC)cnc45)nc3cc2F)cn1 [Example 689, methyl (R)-5-((((1-((6-fluoro-2-(2-methoxy-7-methylquinoxalin-5-yl)thiazolo[5,4-b]pyridin-5-yl)oxy)propan-2-yl)oxy)carbonyl)amino)pyrimidine-2-carboxylate] |
| 9.52 | COC(=O)c1ccc(NC(=O)O[C@H](C)COc2nc3sc(-c4cc(C)cc5nc(OC)cnc45)nc3cc2F)cn1 [Example 690, methyl (R)-5-((((1-((6-fluoro-2-(2-methoxy-7-methylquinoxalin-5-yl)thiazolo[5,4-b]pyridin-5-yl)oxy)propan-2-yl)oxy)carbonyl)amino)picolinate] |
| 9.05 | COc1cnc2c(-c3nc4cc(F)c(OC[C@@H](C)OC(=O)Nc5ccc(CCO)nc5)nc4s3)cc(C)cc2n1 [Example 691, (R)-1-((6-fluoro-2-(2-methoxy-7-methylquinoxalin-5-yl)thiazolo[5,4-b]pyridin-5-yl)oxy) propan-2-yl (6-(2-hydroxyethyl)pyridin-3-yl)carbamate] |
| 8.74 | COc1cnc2c(-c3nc4cc(F)c(OC[C@@H](C)OC(=O)Nc5cnc(O[C@H](C)CO)nc5)nc4s3)cc(C)cc2n1 [Example 692, (R)-1-((6-fluoro-2-(2-methoxy-7-methylquinoxalin-5-yl)thiazolo[5,4-b]pyridin-5-yl)oxy) propan-2-yl (2-(((R)-1-hydroxypropan-2-yl)oxy)pyrimidin-5-yl)carbamate] |
| 8.89 | COc1cnc2c(-c3nc4cc(F)c(OC[C@@H](C)OC(=O)Nc5cnc(O[C@@H](C)CO)nc5)nc4s3)cc(C)cc2n1 [Example 693, (R)-1-((6-fluoro-2-(2-methoxy-7-methylquinoxalin-5-yl)thiazolo[5,4-b]pyridin-5-yl)oxy) propan-2-yl (2-(((S)-1-hydroxypropan-2-yl)oxy)pyrimidin-5-yl)carbamate] |
| 8.68 | COc1cnc2c(-c3nc4cc(F)c(OC[C@@H](C)OC(=O)Nc5ccc(CO)nc5)nc4s3)cc(C)cc2n1 [Example 694, (R)-1-((6-fluoro-2-(2-methoxy-7-methylquinoxalin-5-yl)thiazolo[5,4-b]pyridin-5-yl)oxy) propan-2-yl (6-(hydroxymethyl)pyridin-3-yl)carbamate] |
| 8.59 | COc1cnc2c(-c3nc4cc(F)c(OC[C@@H](C)OC(=O)Nc5ccnc(CCO)c5)nc4s3)cc(C)cc2n1 [Example 696, (R)-1-((6-fluoro-2-(2-methoxy-7-methylquinoxalin-5-yl)thiazolo[5,4-b]pyridin-5-yl)oxy) propan-2-yl (2-(2-hydroxyethyl)pyridin-4-yl)carbamate] |
| 8.54 | COc1cnc2c(-c3nc4cc(F)c(OC[C@@H](C)OC(=O)Nc5ccnc(OCCO)c5)nc4s3)cc(C)cc2n1 [Example 697, (R)-1-((6-fluoro-2-(2-methoxy-7-methylquinoxalin-5-yl)thiazolo[5,4-b]pyridin-5-yl)oxy) propan-2-yl (2-(2-hydroxyethoxy)pyridin-4-yl)carbamate] |
| 7.77 | COc1cnc2c(-c3nc4cc(F)c(OC[C@@H](C)OC(=O)Nc5ccnnc5)nc4s3)cc(C)cc2n1 [Example 698, (R)-1-((6-fluoro-2-(2-methoxy-7-methylquinoxalin-5-yl)thiazolo[5,4-b]pyridin-5-yl)oxy) propan-2-yl pyridazin-4-ylcarbamate] |
| 9.05 | COc1cnc2c(-c3nc4cc(F)c(OC[C@@H](C)OC(=O)Nc5ccc(OCCO)nc5)nc4s3)cc(C)cc2n1 [Example 700, (R)-1-((6-fluoro-2-(2-methoxy-7-methylquinoxalin-5-yl)thiazolo[5,4-b]pyridin-5-yl)oxy) propan-2-yl (6-(2-hydroxyethoxy)pyridin-3-yl)carbamate] |
| 8.57 | COc1cnc2c(-c3nc4cc(F)c(OC[C@@H](C)OC(=O)Nc5cnc(OC[C@H](C)O)nc5)nc4s3)cc(C)cc2n1 [Example 701, (R)-1-((6-fluoro-2-(2-methoxy-7-methylquinoxalin-5-yl)thiazolo[5,4-b]pyridin-5-yl)oxy) propan-2-yl (2-((S)-2-hydroxypropoxy)pyrimidin-5-yl)carbamate] |
| 8.59 | COc1cnc2c(-c3nc4cc(F)c(O[C@@H](C)[C@@H](C)OC(=O)Nc5ccc6[nH]c(=O)oc6c5)nc4s3)cc(C)cc2n1 [Example 708, (2R,3S)-3-((6-fluoro-2-(2-methoxy-7-methylquinoxalin-5-yl)thiazolo[5,4-b]pyridin-5-yl)oxy)butan-2-yl (2-oxo-2,3-dihydrobenzo[d]oxazol-6-yl)carbamate] |
| 9.40 | COc1cnc2c(-c3nc4cc(F)c(O[C@@H](C)[C@@H](C)OC(=O)Nc5cccnc5)nc4s3)cc(C)cc2n1 [Example 709, (2R,3S)-3-((6-fluoro-2-(2-methoxy-7-methylquinoxalin-5-yl)thiazolo[5,4-b]pyridin-5-yl)oxy)butan-2-yl pyridin-3-ylcarbamate] |
| 8.74 | COc1cnc2c(-c3nc4cc(F)c(O[C@@H](C)[C@@H](C)OC(=O)Nc5ccc(C)nc5)nc4s3)cc(C)cc2n1 [Example 710, (2R,3S)-3-((6-fluoro-2-(2-methoxy-7-methylquinoxalin-5-yl)thiazolo[5,4-b]pyridin-5-yl)oxy)butan-2-yl (6-methylpyridin-3-yl)carbamate] |
| 8.62 | COc1cnc2c(-c3nc4cc(F)c(O[C@@H](C)[C@@H](C)OC(=O)Nc5cnc(OC)nc5)nc4s3)cc(C)cc2n1 [Example 711, (2R,3S)-3-((6-fluoro-2-(2-methoxy-7-methylquinoxalin-5-yl)thiazolo[5,4-b]pyridin-5-yl)oxy)butan-2-yl (2-methoxypyrimidin-5-yl)carbamate] |
| 8.49 | COC(=O)c1ncc(NC(=O)O[C@H](C)[C@H](C)Oc2nc3sc(-c4cc(C)cc5nc(OC)cnc45)nc3cc2F)cn1 [Example 712, methyl 5-(((((2R,3S)-3-((6-fluoro-2-(2-methoxy-7-methylquinoxalin-5-yl)thiazolo[5,4-b]pyridin-5-yl)oxy)butan-2-yl)oxy)carbonyl)amino)pyrimidine-2-carboxylate] |
| 8.74 | COc1cnc2c(-c3nc4cc(F)c(O[C@@H](C)[C@@H](C)OC(=O)Nc5ccncc5)nc4s3)cc(C)cc2n1 [Example 713, (2R,3S)-3-((6-fluoro-2-(2-methoxy-7-methylquinoxalin-5-yl)thiazolo[5,4-b]pyridin-5-yl)oxy)butan-2-yl pyridin-4-ylcarbamate] |
| 8.92 | COc1cnc2c(-c3nc4cc(F)c(O[C@@H](C)[C@@H](C)OC(=O)Nc5cncc(F)c5)nc4s3)cc(C)cc2n1 [Example 714, (2R,3S)-3-((6-fluoro-2-(2-methoxy-7-methylquinoxalin-5-yl)thiazolo[5,4-b]pyridin-5-yl)oxy)butan-2-yl (5-fluoropyridin-3-yl)carbamate] |
| 9.05 | COC(=O)c1ccc(NC(=O)O[C@H](C)[C@H](C)Oc2nc3sc(-c4cc(C)cc5nc(OC)cnc45)nc3cc2F)cn1 [Example 715, methyl 5-(((((2R,3S)-3-((6-fluoro-2-(2-methoxy-7-methylquinoxalin-5-yl)thiazolo[5,4-b]pyridin-5-yl)oxy)butan-2-yl)oxy)carbonyl)amino)picolinate] |
| 8.70 | COc1cnc2c(-c3nc4cc(F)c(O[C@@H](C)[C@@H](C)OC(=O)Nc5cncnc5)nc4s3)cc(C)cc2n1 [Example 716, (2R,3S)-3-((6-fluoro-2-(2-methoxy-7-methylquinoxalin-5-yl)thiazolo[5,4-b]pyridin-5-yl)oxy)butan-2-yl pyrimidin-5-ylcarbamate] |

| SMILES | pIC50 |
| --- | --- |
| COc1cnc2c(-c3nc4cc(F)c(OC[C@@H](C)OC(=O)Nc5ccnc(OCCC(C)(C)O)c5)nc4s3)cc(C)cc2n1 [Example 699, (R)-1-((6-fluoro-2-(2-methoxy-7-methylquinoxalin-5-yl)thiazolo[5,4-b]pyridin-5-yl)oxy) propan-2-yl (2-(3-hydroxy-3-methylbutoxy)pyridin-4-yl)carbamate] | 8.96 |
| COc1cnc2c(-c3nc4cc(F)c(OC[C@@H](C)OC(=O)Nc5cnc(OCCC(C)(C)O)nc5)nc4s3)cc(C)cc2n1 [Example 702, (R)-1-((6-fluoro-2-(2-methoxy-7-methylquinoxalin-5-yl)thiazolo[5,4-b]pyridin-5-yl)oxy) propan-2-yl (2-(3-hydroxy-3-methylbutoxy)pyrimidin-5-yl)carbamate] | 8.37 |
